Experimental findings from patent publication US20040180855A1, “Methods of treating thrombosis with reduced risk of increased bleeding times” (priority 2003, published 2004) are described below.

One may read the IC50 as the concentration needed to halve the response being measured. Read a low IC50 as higher potency.

Bounds are passed on as bounds.

One data set has as its target T1, Human TF:FVIIa (Homo sapiens, UniProt P08709).
T1 construct: purchased Enzyme Research Labs (FVIIa); Dade (Innovin, tissue factor)
Description: Selectivity assay TF:FVIIa. In kind it is biochemical. The settings on record: Table 3. How it is done:
Human TF:FVIIa activity was measured using isolated human FVIIa (Enzyme Research Labs) in the presence of recombinant human tissue Factor (Dade Innovin) in a buffer containing 20 mM HEPES, 150 mM NaCl, 5mM CaCl2, 1 mM CHAPS and 1 mg/mL PEG 6000 (pH to 7.4).

For data set [1], the system named is thrombosis and bleeding time in anesthetized rats. The data set can be described thus: Differential effect on thrombosis inhibition and bleeding time prolongation (FIG. 7). Format: in vivo, rat. The conditions noted are these: versus thrombin and FXa inhibitors (16A, 16B). On the procedure: FIG. 7 reports an analysis of the differential effect on thrombosis inhibition and bleeding time prolongation in anesthetized rats for the Factor XIa inhibitor, as compared with the “direct acting” thrombin and FXa active site inhibitors, namely, compounds 16A and 16B (thrombin and FXa active site inhibitors). The thrombin inhibitor (open symbols), FXa inhibitor (dotted symbols) and FXIa inhibitor (line symbols) were tested for effects on arterial thrombosis (squares), venous thrombosis (triangles) and bleeding time (circles) in rat models. Compounds were administered as loading plus sustaining infusion and the total dose is given on the x-axis.

The test system of the next data set is rat plasma. The data set can be described thus: APTT clotting time, rat plasma. Format: biochemical. From the text: The term “APTT” as used herein means “activated partial thromboplastin times” which is intended to refer to the time elapsed between the formation of an assay solution and the detection of clot formation in the assay solution with use of an APTT assay, i.e., an assay employing an intrinsic pathway activator, such as micronized silica, and a phospholipid component of a thromboplastin reagent (without tissue factor protein) for evaluating coagulation associated with the intrinsic pathway.
(§1) PT and APTT clotting times were determined as described in Balasubramanian et al., J. Med. Chem., Vol. 36 (1993), at pp. 300-03, incorporated herein by reference. The whole blood aggregation response of rat platelets to collagen was determined using the impedance procedure for a Model 560-CA Chrono-Log aggregometer (Havertown, Pa.).

In another data set the test system is human plasma. The data set can be described thus: PT clotting time, human plasma. Format: biochemical. The settings on record: highest concentration tested 100 μM. On the procedure: The term “PT” time as used herein refers to prothrombin times which is intended to refer to the time elapsed between formation of an assay solution and detection of clot formation in the assay solution with use of a PT assay, i.e., an assay employing thromboplastin reagents that are used for evaluating blood coagulation associated with the extrinsic pathway.
as §1

For data set [2], the system named is FeCl2-VT (vena cava thrombosis). The data set can be described thus: Venous thrombosis, vessel injury model (FeCl2-VT). In kind it is in vivo. The conditions noted are these: rat FeCl2-VT. How it is done:
General Surgical Preparation Male Sprague Dawley rats (310 to 390 g) were anesthetized with Na-pentobarbital (50 mg/kg i.p.). The left jugular vein was cannulated with PE-50 tubing for drug administration, and the trachea was intubated with PE-205 tubing to ensure airway patency. In some animals, a carotid artery was cannulated with PE-50 tubing to obtain blood samples, and a procedure was followed as described in Schumacher et al., “Comparison of Thrombin Active-Site and Exosite Inhibitors and Heparin in Experimental Models of Arterial and Venous Thrombosis and Bleeding,” J. Pharmacol. Exp. Therap., Vol. 267 (1993), at pp. 1237-42; Schumacher et al., Effects of Antithrombotic Drugs in a Rat Model of Aspirin-Insensitive Arterial Thrombosis, Thromb Haemostasis, Vol. 69 (1993), at pp. 509-514; or Schumacher et al., Effect of a Novel Thrombin Active-Site Inhibitor on Arterial and Venous Thrombosis, Eur J Pharmacol., Vol. 259 (1994), at pp. 165-171, each of which is incorporated herein by reference. In each procedure, a small organic compound effective for inhibiting Factor XIa, as described herein, or saline vehicle, was administered i.v. as a loading infusion over 5 min plus a sustaining infusion that was maintained until the end of the procedure. Compound doses are indicated for each procedure in mg/kg plus mg/kg/hr. The volume of test article was 1 mL/kg plus 1 mL/kg/hr, except the 24 mg/kg+24 mg/kg/hr dose of compound where volume was doubled. […] Statistical Analysis In the venous and arterial thrombosis procedures, treatment effects on thrombus weight, baseline blood flow, and average blood flow during thrombosis were determined by analysis of variance with Dunnett's test for comparison to the vehicle group. […] Treatment effects on bleeding times were determined by analysis of variance with Dunnett's test for comparison to the vehicle group. Both post-treatment and pre-treatment bleeding times and the relative bleeding time increases in sec were analyzed. […]

T1 sequence (P08709 213-466 limits assumed): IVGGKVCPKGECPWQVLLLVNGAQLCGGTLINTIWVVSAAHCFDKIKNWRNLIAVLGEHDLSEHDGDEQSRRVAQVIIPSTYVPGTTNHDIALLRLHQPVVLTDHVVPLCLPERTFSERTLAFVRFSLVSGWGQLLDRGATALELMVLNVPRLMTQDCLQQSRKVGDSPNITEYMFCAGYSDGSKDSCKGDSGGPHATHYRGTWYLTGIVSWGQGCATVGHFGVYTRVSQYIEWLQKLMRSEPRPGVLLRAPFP
T1 sequence (P08709 61-212 partner limits assumed): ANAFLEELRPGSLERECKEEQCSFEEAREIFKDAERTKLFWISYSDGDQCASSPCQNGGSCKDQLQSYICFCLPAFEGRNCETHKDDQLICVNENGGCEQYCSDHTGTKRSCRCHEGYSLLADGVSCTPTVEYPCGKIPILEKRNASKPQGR
T1 sequence (P13726 33-295 partner): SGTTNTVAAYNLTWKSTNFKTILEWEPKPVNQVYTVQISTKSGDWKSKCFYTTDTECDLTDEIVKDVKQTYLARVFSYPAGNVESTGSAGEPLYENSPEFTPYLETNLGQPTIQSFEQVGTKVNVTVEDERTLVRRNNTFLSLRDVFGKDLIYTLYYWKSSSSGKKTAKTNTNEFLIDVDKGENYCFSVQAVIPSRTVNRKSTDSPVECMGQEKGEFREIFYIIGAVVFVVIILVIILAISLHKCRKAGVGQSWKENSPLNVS

Compound `CC(C)(C)NC(=O)N1CCN(C(=O)N2C(=O)[C@H](CCCNC(=N)N)[C@H]2C(=O)O)CC1` [Example 4] showed an IC50 at Human TF:FVIIa of 0.486 µM. Also, the “separation between bleeding time prolongation and efficacy in venous and arterial thrombosis” value in data set [1] is reported as “substantially greater separation”. Further, in the data set on rat plasma, the “Clotting time APTT (rat), concentration that doubles clotting time” value was 2.1 µM. Further, in the data set with human plasma, the “Clotting time PT (human), concentration that doubles clotting time” value is more than 100 µM. In data set [2] (i.v. 0.2+0.2 mg/kg+mg/kg/hr, FIG. 3), the “inhibition (reduction in thrombus weight)” value is “about 38%”. Also, the “dose dependence of thrombus weight reduction” value in data set [2] (i.v. 0.2+0.2 to 6+6 mg/kg+mg/kg/hr) is reported as “Dose-dependent reductions”. In addition, the “reduction in thrombus weight” value in data set [2] (i.v. 6+6 mg/kg+mg/kg/hr, FIG. 3) is reported as “approximately 90%”.
